# Earlier results in patent publication US10166212B2, “Oral use of zinc and copper gluconates in the treatment of digital dermatitis” (DANTRACE, priority 2015, dated 2019).
# Columns and labels:
# [1] = tested on: digital dermatitis lesions
# [2] = administered as pills of zinc oxide; remainder excreted in feces
SMILES,"healing rate, treatment vs. control group ([1]; by day 34, P=0.01)","overall positive effect (healing and improvement), treatment vs. control ([1]; by day 34, P=0.05) [fold]","healing rate (change to M0) ([1]; by day 34 post-treatment, 10 g salicylic acid powder in bandage vs chlortetracycline spray control) [%]","proportion of lesions getting smaller, treatment vs. control ([1]; by days 14 and 34, P<0.08) [times]",healing rates between treatment groups ([1]; days 3 and 14),zinc taken up by the digestive system [2] [%]
O=C(O)c1ccccc1O [salicylic acid],fivefold better,1.75,13.6,2.5,did not differ significantly,
[O]=[Zn] [zinc oxide],,,,,,20
